Measurements reported in patent US20110251220A1, “Pharmaceutical compositions comprising gamma secretase modulators” (priority 2008, published 2011).

System: OPM-2 cells
Experiment: PARP cleavage by Western blotting, OPM-2
Format: cell-based, human
Protocol: In osteoclast coculture experiments, OPM-2 cells (1×10^6 cells) were added to osteoclasts in 60 mm dishes (4×10^6 cells per dish) in 3 ml MEM medium supplemented with 10% FCS, 100 U/ml penicillin, 100 μg/ml streptomycin. GSI15 (30 μM, 60 μM) or DMSO (equivalent to 60 μM) as solvent control were added to each well (daily treatment). After 48 h, 0.5 ml OPM-2 cell suspension were harvested per well and subjected to AnnexinV-FITC/PI staining. Remaining OPM-2 cells were harvested and lysed for either RNA or protein preparation. The monolayer of osteoclasts was washed twice with ice-cold PBS and then lysed for either RNA or protein preparation directly on the plate.
In osteoblast coculture experiments, OPM-2 cells (7.5×10^5) were added to osteoblasts (2×10^5 cells) in 6-well plates in 2 ml DMEM/HAM's F12 medium supplemented with 10% FCS, 100 U/ml penicillin, 100 μg/ml streptomycin. GSI15 (40 μM, 60 μM, 80 μM) or DMSO (equivalent to 80 μM) as solvent control was added to each well (daily treatment). After 72 h of coculture and GSI15 treatment OPM-2 cells in suspension were aspirated and subjected to protein lysis. The remaining monolayer of osteoblasts was washed twice with ice-cold PBS and lysed directly on the plate with protein lysis buffer.
Whole cell extracts were prepared and quantified as described in Jundt F, Anagnostopoulos I, Forster R, Mathas S, Stein H, Dorken B. Activated Notch1 signaling promotes tumor cell proliferation and survival in Hodgkin and anaplastic large cell lymphoma. Blood. 2002; 99:3398-3403. Proteins (30 μg) were resolved by sodium dodecyl sulfate-polyacrylamide gel electrophoresis (SDS-PAGE) and transferred to nitrocellulose membranes. Protein loading was normalized by Ponceau red staining. […]
Secondary antibodies were goat anti-mouse (Promega, Mannheim, Germany), goat anti-rat (Dianova, Hamburg, Germany), and goat anti-rabbit (Santa Cruz Biotechnology) horseradish peroxidase (HRP)-conjugated antibodies. Detection was done using Pico chemi-luminescence reagent (Perbio Science, Bonn, Germany).

With CC(C)c1ccc(S(=O)(=O)Nc2cccnc2Oc2ccc(Cl)cc2)cc1 [Example 1, N-(2-(4-chlorophenoxy)pyridin-3-yl)-4-isopropylbenzenesulfonamide] the PARP cleavage (MM cells in coculture with OBL or MSC) was “apoptosis induction”, the “PARP cleavage product (apoptosis marker)” value (OPM-2, 30 μM GSI15) was “Apoptosis induction could be shown” and the PARP cleavage (OPM-2 in mono- and coculture with OCL) was “Strong induction of PARP cleavage”.
